Measured values published in PMC5861220, “The Cytochrome P450-Mediated Metabolism Alternation of Four Effective Lignans From Schisandra chinensis in Carbon Tetrachloride-Intoxicated Rats and Patients With Advanced Hepatocellular Carcinoma” (Frontiers in Pharmacology, 2018).
Where two headings read alike, the source gives them in different places.

Legend:
[1] = Identification of CYP450 isozymes in lignan metabolism, human liver microsomes (no inhibitor); type: in vitro ADME; settings: human liver microsomes 0.5 mg/mL, 5 μM, Control (no inhibitor)
Experimental: The CYP450s involved in the metabolism of schisandrin, schisantherin A, deoxyshisandrin and γ-schisandrin in rat or human liver microsomes were confirmed by comparison of the metabolism ratio before and after the addition of selective inhibitors to CYP450 isozymes. […] The supernate was injected to HPLC-MS for analysis of the four lignans.

[2] = Pharmacokinetics of four lignans in rats after oral SC alcoholic extract; type: in vivo, rat; settings: for AUC(0-t) / Cmax / half-life / CL/F / MRT last / Tmax: Sprague-Dawley, rat, plasma, po, 1.5 g/kg/day, oral SC alcoholic extract 1.5 g/kg/day for 4 days, n = 5; for CL/F: read-out: CLz/F (converted); for MRT last: read-out: MRT(0−t); for Tmax: read-out: Tmax
Experimental: The pharmacokinetic profiles of four lignans were studied in ALI rat after multiple oral administrations of SC alcoholic extract at dose of 1.5 g/kg/day. After the ALI rat was established, SC alcoholic extract suspended in 0.5% sodium carboxymethyl cellulose was given to ALI rats and the control via oral gavage once a day for 4 consecutive days. Before the last dosing, rats were fasted for 12 h while water was taken freely. Blood samples were collected at 0, 0.25, 0.5, 1, 2, 3, 4, 6, 8, 12, 24, 36, and 48 h after the last dosing. A cannula was surgically placed into the jugular vein for collection of blood samples (about 0.1 mL) and blood loss compensation using sterile isotonic saline in the pharmacokinetic study. Plasma was separated by centrifugation and stored at −20°C until analysis. Plasma concentrations of the four lignans were quantified using HPLC-MS analysis developed according to the reported method (Wang et al., [2008]).
Data fitting and pharmacokinetic parameter calculations were carried out using the Winnolin software. Non-compartmental analysis was used to calculate the pharmacokinetic parameters. Parameters, such as AUC and MRT, were calculated using statistical moment method.

[3] = tested on: rat liver; test: In situ hepatic perfusion of four lignans; type: in vivo; settings: hepatic perfusion 60 min, 10 μM, n = 3
Experimental: (§1) In situ liver perfusion was performed similarly as the method described previously (Uraki et al., [2016]). […] The perfusate consisted of Krebs–Hensleit buffer (pH 7.4) containing sodium taurocholate (4.75 mg/L), 1% bovine serum albumin, and glucose (1.2 g/L) was oxygenated using carbogen, 95% O2/5% CO2. The perfusate at 37°C was infused into the portal vein at a flow rate of 30 mL/min in a recirculatory manner. After 10-min equilibration, four schisandra lignans were added to the reservoir (final concentration of 10 μM). Perfusate (0.5 mL) and bile samples were collected at 0, 10, 20, 30, 40, 50, and 60 min after the addition of lignans. The same volume of blank perfusion buffer was immediately added to the reservoir after collection of the perfusate samples. After hepatic perfusion, rat was sacrificed and liver was removed, blotted dry, and weighed.

[4] = In situ hepatic perfusion of four lignans; type: in vivo, rat; settings: Sprague-Dawley, rat, perfusate, perfusate AUC(0−1h), n = 3
Experimental: as §1

[5] = tested on: rat intestine (jejunum segment); test: In situ intestinal perfusion of four lignans; type: in vivo; settings: for Perfusate (Percent of the initial dose) / Plasma (Percent of the initial dose) / Intestine (Percent of the initial dose) / Pblood / Plumen: 50 μM, n = 3; for Perfusate (Percent of the initial dose): intestinal perfusion 60 min; for Plasma (Percent of the initial dose) / Intestine (Percent of the initial dose) / Rise of cumulative plasma amount: intestinal perfusion; for Plasma (Percent of the initial dose): mesenteric vein blood; for Increase of remaining amount in perfusate: intestinal autoperfusion (60 min), CCl4-treated rats vs control; for Rise of cumulative plasma amount: CCl4-intoxicated rats vs control
Experimental: The surgical procedures of intestinal perfusion were conducted according to those published reports (Savina et al., [1981]). Hank's balanced salt solution (HBSS, pH 7.4) with four schisandra lignans (50 μM) at 37°C was infused into the jejunum segment at rate of 0.3 mL/min. Phenol Red (50 μM) was added to serve as a nonabsorbable marker for measuring water flux. Blood samples from mesenteric vein and perfusate were collected at 5-min interval. The plasma separated by centrifugation and perfusate was stored at −20°C until HPLC-MS analysis.
The permeability of four lignans across the rat intestine was calculated based on the disappearance of parent drug from the lumen (Plumen) as well as the appearance of the drug in blood (Pblood) using the following equations (Singhal et al., [1998]):
(1) Plumen = −Q/2πrlLnCout/Cin
(1) Pblood = ΔMB/Δt/2πrl{C}
where r is the radius of the perfused intestinal lumen; l is the length of the segment; Q is the flow rate of perfusate; Cin is the concentration of drug at the start of perfusion; and Cout is the steady-state concentration of drug exiting the lumen. ΔMB/Δt is the rate of drug appearance in mesenteric blood; and {C} is the logarithmic mean concentration of drug in the lumen.

[6] = Transport across Caco-2 cell monolayer; type: in vitro ADME; settings: human, Caco-2; for efflux ratio at 2 h, 5 μM / efflux ratio at 2 h, 10 μM / efflux ratio at 2 h, 50 μM: ER = Papp (BL → AP)/Papp(AP → BL)
Experimental: Caco-2 cell (passage 38) was used in the transport experiments. Cells were seeded on polycarbonate filters (12 mm diameter, pore size […]) at 1 × 10^5/cm^2. The cell monolayer was formed 21 days post seeding when the transepithelial electrical resistance (TEER) was above 1,000 Ω• cm^2. Three concentration levels (5, 10, and 50 μM) were set for the four schisandra lignans in the study. After preincubation for 1 h at 37°C, the solution of the four lignans was respectively added to the apical (0.4 mL) or basolateral (0.6 mL) chamber for absorptive (AP → BL) and secretive (BL → AP) permeability test. At the specified timepoints (0.5, 1, 1.5 and 2 h), 50 μL samples (n = 3) were withdrawn from receiver chamber, and meanwhile, 50 μL fresh buffer was added. The four lignans were determined by HPLC-MS method.
The efflux rate (ER) was calculated by the formula ER = Papp (BL → AP)/Papp(AP → BL).

Molecule `COc1cc2c(c(OC)c1OC)-c1c(cc(OC)c(OC)c1OC)C[C@](C)(O)[C@@H](C)C2` [Schisandrin, schisandrin] has a Metabolism rate [1] of 263.4 ± 22.5 nmol/min/mg, an AUC(0-t) ([2]; CCl4-intoxicated rats) of 74700 ± 26300 ng·h/mL and a Cmax ([2]; CCl4-intoxicated rats) of 3980 ± 1530 ng/mL. For the same molecule, the half-life ([2]; CCl4-intoxicated rats) was 7.74 ± 1.21 h, the CL/F ([2]; CCl4-intoxicated rats) was 6.61 mL/min/kg and the MRT last ([2]; CCl4-intoxicated rats) was 12.8 ± 0.25 h. The Tmax ([2]; CCl4-intoxicated rats) was 6.2 ± 2.05 h, the AUC(0-t) ([2]; Control (normal) rats) was 19800 ± 7490 ng·h/mL and the Cmax ([2]; Control (normal) rats) was 1370 ± 617 ng/mL. For the same molecule, the half-life ([2]; Control (normal) rats) was 10.1 ± 4.12 h, the CL/F ([2]; Control (normal) rats) was 24.3 mL/min/kg and the MRT last ([2]; Control (normal) rats) was 11.1 ± 0.97 h. For the same molecule, the Tmax ([2]; Control (normal) rats) was 6 h, the “Total amount of analyte in bile” value ([3]; CCl4-intoxicated rats) was 1.06 ± 0.14 µg and the “Total amount of analyte in liver” value ([3]; CCl4-intoxicated rats) was 19.55 ± 2.07 µg. For the same molecule, the “Total amount of analyte in bile” value ([3]; Control rats) was 1.15 ± 0.27 µg, the “Total amount of analyte in liver” value ([3]; Control rats) was 11.19 ± 1.18 µg and the AUC at 10 μM ([4]; pH 7.4, CCl4-intoxicated rats) was 3860 ± 70 ng·h/mL. For the same molecule, the AUC at 10 μM ([4]; pH 7.4, Control rats) was 3230 ± 110 ng·h/mL, the “Perfusate (Percent of the initial dose)” value ([5]; CCl4-intoxicated rats) was 93.40 ± 1.05% of the initial dose and the “Plasma (Percent of the initial dose)” value ([5]; CCl4-intoxicated rats) was 0.84 ± 0.06% of the initial dose. The “Intestine (Percent of the initial dose)” value ([5]; CCl4-intoxicated rats) was 1.98 ± 0.13% of the initial dose, the Pblood ([5]; CCl4-intoxicated rats) was 0.063 ± 0.008 × 10^−4 cm/s and the Plumen ([5]; CCl4-intoxicated rats) was 2.420 ± 0.788 × 10^−4 cm/s. The “Perfusate (Percent of the initial dose)” value ([5]; Control rats) was 86.16 ± 1.39% of the initial dose, the “Plasma (Percent of the initial dose)” value ([5]; Control rats) was 0.44 ± 0.06% of the initial dose and the “Intestine (Percent of the initial dose)” value ([5]; Control rats) was 2.22 ± 0.96% of the initial dose. For the same molecule, the Pblood ([5]; Control rats) was 0.046 ± 0.008 × 10^−4 cm/s, the Plumen ([5]; Control rats) was 2.490 ± 0.141 × 10^−4 cm/s and the “Increase of remaining amount in perfusate” value [5] was “about 10%”. The “Rise of cumulative plasma amount” value [5] was “about 91%”, the Papp A→B at 2 h, 5 μM [6] was 2.15 ± 0.56 ×10⁻⁶ cm/s and the Papp B→A at 2 h, 5 μM [6] was 3.31 ± 0.59 ×10⁻⁶ cm/s. The efflux ratio at 2 h, 5 μM [6] was 1.54, the Papp A→B at 2 h, 10 μM [6] was 1.86 ± 0.17 ×10⁻⁶ cm/s and the Papp B→A at 2 h, 10 μM [6] was 2.03 ± 0.11 ×10⁻⁶ cm/s. For the same molecule, the efflux ratio at 2 h, 10 μM [6] was 1.09, the Papp A→B at 2 h, 50 μM [6] was 1.93 ± 0.2 ×10⁻⁶ cm/s and the Papp B→A at 2 h, 50 μM [6] was 2.12 ± 0.17 ×10⁻⁶ cm/s. For the same molecule, the efflux ratio at 2 h, 50 μM [6] was 1.1.
For `COc1cc2c(c(OC)c1OC)-c1c(cc(OC)c(OC)c1OC)C[C@H](C)[C@@H](C)C2` [Deoxyshisandrin, deoxyshisandrin], the Metabolism rate [1] was 162.5 ± 15.6 nmol/min/mg, the “Reduction of systemic clearance (CLz/F)” value ([2]; CCl4 intoxicated rats vs control rats) was about 56% and the AUC(0-t) ([2]; CCl4-intoxicated rats) was 16400 ± 5020 ng·h/mL. The Cmax ([2]; CCl4-intoxicated rats) was 775 ± 239 ng/mL, the half-life ([2]; CCl4-intoxicated rats) was 13.1 ± 1.78 h and the CL/F ([2]; CCl4-intoxicated rats) was 35.5 mL/min/kg. It also gave an MRT last ([2]; CCl4-intoxicated rats) of 16.4 ± 1.02 h, a Tmax ([2]; CCl4-intoxicated rats) of 5.8 ± 2.86 h and an AUC(0-t) ([2]; Control (normal) rats) of 7880 ± 2810 ng·h/mL. It also gave a Cmax ([2]; Control (normal) rats) of 564 ± 318 ng/mL, a half-life ([2]; Control (normal) rats) of 11.5 ± 2.08 h and a CL/F ([2]; Control (normal) rats) of 80 mL/min/kg. For the same molecule, the MRT last ([2]; Control (normal) rats) was 11.7 ± 0.97 h, the Tmax ([2]; Control (normal) rats) was 5 ± 2.24 h and the “Total amount of analyte in bile” value ([3]; CCl4-intoxicated rats) was 0.75 ± 0.07 µg. For the same molecule, the “Total amount of analyte in liver” value ([3]; CCl4-intoxicated rats) was 14.57 ± 2.41 µg, the “Total amount of analyte in bile” value ([3]; Control rats) was 1.29 ± 0.30 µg and the “Total amount of analyte in liver” value ([3]; Control rats) was 9.71 ± 1.32 µg. The AUC at 10 μM ([4]; pH 7.4, CCl4-intoxicated rats) was 3620 ± 100 ng·h/mL, the AUC at 10 μM ([4]; pH 7.4, Control rats) was 3090 ± 120 ng·h/mL and the “Perfusate (Percent of the initial dose)” value ([5]; CCl4-intoxicated rats) was 91.77 ± 1.59% of the initial dose. The “Plasma (Percent of the initial dose)” value ([5]; CCl4-intoxicated rats) was 0.83 ± 0.06% of the initial dose, the “Intestine (Percent of the initial dose)” value ([5]; CCl4-intoxicated rats) was 1.79 ± 0.41% of the initial dose and the Pblood ([5]; CCl4-intoxicated rats) was 0.063 ± 0.018 × 10^−4 cm/s. For the same molecule, the Plumen ([5]; CCl4-intoxicated rats) was 2.270 ± 0.363 × 10^−4 cm/s, the “Perfusate (Percent of the initial dose)” value ([5]; Control rats) was 81.69 ± 1.77% of the initial dose and the “Plasma (Percent of the initial dose)” value ([5]; Control rats) was 0.51 ± 0.03% of the initial dose. For the same molecule, the “Intestine (Percent of the initial dose)” value ([5]; Control rats) was 1.69 ± 0.30% of the initial dose, the Pblood ([5]; Control rats) was 0.053 ± 0.009 × 10^−4 cm/s and the Plumen ([5]; Control rats) was 2.337 ± 0.211 × 10^−4 cm/s. For the same molecule, the “Increase of remaining amount in perfusate” value [5] was “about 10%”, the “Rise of cumulative plasma amount” value [5] was about 63% and the Papp A→B at 2 h, 5 μM [6] was 1.17 ± 0.13 ×10⁻⁶ cm/s. It also gave a Papp B→A at 2 h, 5 μM [6] of 1.67 ± 0.14 ×10⁻⁶ cm/s, an efflux ratio at 2 h, 5 μM [6] of 1.42 and a Papp A→B at 2 h, 10 μM [6] of 1.16 ± 0.04 ×10⁻⁶ cm/s. For the same molecule, the Papp B→A at 2 h, 10 μM [6] was 1.52 ± 0.16 ×10⁻⁶ cm/s, the efflux ratio at 2 h, 10 μM [6] was 1.31 and the Papp A→B at 2 h, 50 μM [6] was 1.24 ± 0.17 ×10⁻⁶ cm/s. It also gave a Papp B→A at 2 h, 50 μM [6] of 1.71 ± 0.51 ×10⁻⁶ cm/s and an efflux ratio at 2 h, 50 μM [6] of 1.38.
